Source: US20060178435A1, “Apogossypolone and the uses thereof” (The Regents of the University of Michigan, priority 2004, published 2006)
Read-outs that look alike come from different tables or passages of the source.

Tests used:
[1] = tested on: MDA-MB-231 (subclone 2LMP) breast cancer cell line; experiment: Cell growth inhibition, MDA-MB-231 (subclone 2LMP); type: cell-based, human; details: for fold more potent than gossypol: MDA-MB-231 cell line
Procedure: (§1) A direct comparison of (−)-gossypol, apogossypol and apogossypolone for their activity in inhibition of cell growth in PC-3 and LnCap prostate cancer cell lines was carried out.
(§2) Additional cell growth inhibition studies were performed using the MDA-MB-231 (subclone 2LMP), T47D, and MDA-MB-435 breast cancer cell lines. Racemic gossypol, apogossypol, apogossypolone, (+)-apogossypol, (−)-apogossypol, and tetra-acetyl apogossypolone (Formula VIII) were tested as described above.

[2] = tested on: MDA-MB-435 breast cancer cell line; experiment: Cell growth inhibition, MDA-MB-435; type: cell-based, human
Procedure: as §1, §2

[3] = tested on: T47D breast cancer cell line; experiment: Cell growth inhibition, T47D; type: cell-based, human
Procedure: as §1, §2

[4] = tested on: PC-3 prostate cancer cell line; experiment: Inhibition of cell growth, MTT assay, PC-3; type: cell-based, human; details: for potency relative to (−)-gossypol in inhibition of cell growth: PC-3 cell line, 3-5 independent experiments
Procedure: as §1

[5] = tested on: LnCap prostate cancer cell line; experiment: Inhibition of cell growth, MTT assay, LnCap; type: cell-based; details: read-out: IC50, inhibition of cell growth
Procedure: as §1

[6] = Maximal tolerated dose (MTD) in mice; type: in vivo; details: for MTD: mouse, in vivo
Procedure: To confirm this prediction, the maximal tolerated dose (MTD) of apogossypolone and (−)-gossypol was evaluated in mice using two different routes of administrations (oral and intravenous). For oral administration (oral gavage 5 days/week), the MTD of apogossypolone was above 240 mg/kg while the MTD for (−)-gossypol was about 50 mg/kg. For intravenous administration (every other day and 3 days/week), the MTD of apogossypolone was about 80 mg/kg while the MTD for (−)-gossypol was about 10 mg/kg. In both routes of administration, the MTD of apogossypolone was 8-times better than (−)-gossypol.

[7] = biological target: T1, human Mcl-1 protein (amino acids 171-327) (Homo sapiens, UniProt Q07820); experiment: Fluorescence polarization binding assay for the Mcl-1 protein (Flu-Bid-21 probe)
T1 construct: The fragment encoding amino acids 171-327 was cloned into the pHis-TEV vector; 8xHis (N); made in house; host or cells: E. coli BL21(DE3)
T1 sequence (Q07820 171-327): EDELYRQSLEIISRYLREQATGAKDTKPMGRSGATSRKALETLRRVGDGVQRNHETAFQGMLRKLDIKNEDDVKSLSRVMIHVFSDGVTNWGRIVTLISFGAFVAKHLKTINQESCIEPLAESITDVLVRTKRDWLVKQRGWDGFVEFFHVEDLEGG

recombinant human Bcl-2 = recombinant human Bcl-2 (Homo sapiens, UniProt P10415); experiment: Fluorescence polarization binding assay for Bcl-2 (Bid-FAM peptide displacement)
Chain of recombinant human Bcl-2 (P10415 92-205 limits assumed): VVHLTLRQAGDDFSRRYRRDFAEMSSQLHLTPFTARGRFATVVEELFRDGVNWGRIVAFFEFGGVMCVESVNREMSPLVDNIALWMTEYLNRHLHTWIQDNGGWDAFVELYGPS

[8] = Storage stability of the sample; type: physicochemical
recombinant human Bcl-xL = biological target: T2, recombinant human Bcl-xL (Homo sapiens, UniProt Q07817); experiment: Fluorescence polarization binding assay for Bcl-xL (Bak-Flu peptide displacement)
T2 construct: fused to a His-tag without the C-terminus hydrophobic tail; His-tag
T2 sequence (Q07817 1-209 limits assumed): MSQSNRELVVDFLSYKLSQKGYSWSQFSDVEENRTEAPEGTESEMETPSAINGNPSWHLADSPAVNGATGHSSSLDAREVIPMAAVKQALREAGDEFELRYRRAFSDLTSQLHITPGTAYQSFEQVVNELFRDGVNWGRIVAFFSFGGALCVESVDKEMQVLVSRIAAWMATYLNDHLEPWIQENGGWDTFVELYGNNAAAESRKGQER
Description: Fluorescence polarization (FP)-based binding assays for Bcl-2 and Bcl-xL were developed and optimized using recombinant human Bcl-2 and Bcl-xL proteins, a Bid BH3 peptide labeled with 6-carboxyfluorescein succinimidyl ester (FAM) and Bak BH3 peptide labeled with 6-(fluorescein-5(6)-carboxamido) hexanoic acid (Flu). The FP-based binding assays measure the ability of an inhibitor to displace either Bid-FAM or Bak-Flu peptide from Bcl-2 or Bcl-xL protein, respectively. The dose-dependent binding experiments were carried out with serial dilutions of the tested compounds in DMSO. For the Bcl-2 binding assay, a 5 μl sample of the inhibitor and preincubated recombinant His-fused soluble Bcl-2 protein (120 nM) with Bid-FAM peptide (10 nM) in the assay buffer (100 mM potassium phosphate, pH 7.5; 100 μg/ml bovine gamma globulin; 0.02% sodium azide, purchased from Invitrogen, Life Technologies), were added in Dynex 96-well, black, round-bottom plates (Fisher Scientific), to produce a final volume of 125 μl. […] The polarization values were measured after 3-4 hr incubation, using an ULTRA READER (Tecan U.S. Inc., Research Triangle Park, N.C.). The Ki value was calculated using a modified Cheng-Prusoff equation based upon the Kd value for the Bid-FAM peptide to Bcl-2, the measured IC50 value, and the concentrations of the protein and Bid-FAM. […]

PC-3 xenografts = experiment: Antitumor activity in PC-3 xenograft model, alone or with X-ray irradiation; type: in vivo, nude mice; details: for complete tumor regression: Day 57
Procedure: An in vivo study of apogossypolone was carried out using a PC-3 xenograft model in nude mice to evaluate the antitumor activity of apogossypolone alone or in combination with X-ray irradiation. Nude mice with established PC-3 xenografts (150 mm^3 in size) were treated with (1) apogossypolone 200 mg/kg p.o. q.d. 5×4 weeks; (2) fractionated X-ray irradiation to the tumor only, with the animal body shielded, at a dose of 2 Gy q.d. 5×3 weeks, total 30 Gy; and (3) a combination of apogossypolone and radiation.

[9] = MDA-MB-231 (subclone 2LMP), read-out: IC50 (μM) MDA-MB-231
[10] = MDA-MB-435; read-out: IC50 (μM) MDA-MB-435
[11] = intravenous, every other day and 3 days/week
[12] = FP-based binding assay, Ki calculated from IC50 with modified Cheng-Prusoff equation, read-out: Ki
[13] = Homo sapiens, PC-3 cells, 4-6 day MTT assay, read-out: IC50, inhibition of cell growth
[14] = Homo sapiens, MDA-MB-231, read-out: IC50 (μM) MDA-MB-231
[15] = Homo sapiens, MDA-MB-435, read-out: IC50 (μM) MDA-MB-435
[16] = Homo sapiens, T47D, read-out: IC50 (μM) T47D

Cc1cc2c(C(C)C)c(O)c(O)cc2c(O)c1-c1c(C)cc2c(C(C)C)c(O)c(O)cc2c1O [(+)-Apogossypol, (+)-apogossypol]
IC50 [1, 9]: 8.81 µM | IC50 [2, 10]: 7.28 µM | IC50 ([3]; T47D; read-out: IC50 (μM) T47D): 14 µM

Cc1cc2c(C(C)C)c(O)c(O)c(C=O)c2c(O)c1-c1c(C)cc2c(C(C)C)c(O)c(O)c(C=O)c2c1O [(−)-gossypol, reference compound]
IC50 ([4]; PC-3 cells, 4-6 day MTT assay, read-out: IC50, inhibition of cell growth): 6.5 µM | IC50 ([5]; LnCap cell line): 4700 nM | maximal tolerated dose (MTD) [6, 11]: about 10 mg/kg | maximal tolerated dose (MTD) ([6]; oral gavage 5 days/week): about 50 mg/kg | Ki ([7]; FP competitive binding, unit inferred, read-out: Ki to Mcl-1): 180 ± 10 nM

Cc1cc2c(C(C)C)c(O)c(O)cc2c(O)c1-c1c(C)cc2c(C(C)C)c(O)c(O)cc2c1O [(−)-Apogossypol, (−)-apogossypol]
IC50 [1, 9]: 2.31 µM | IC50 [2, 10]: 3.13 µM | IC50 ([3]; T47D; read-out: IC50 (μM) T47D): 4.26 µM

CC[C@H](C)[C@H](NC(=O)[C@H](CC(N)=O)NC(=O)[C@H](CCCN=C(N)N)NC(=O)[C@@H](NC(=O)[C@@H](NC(=O)[C@H](CC(=O)O)NC(=O)[C@H](CCC(=O)O)NC(=O)[C@@H](N)CCC(N)=O)[C@@H](C)CC)[C@@H](C)CC)C(=O)N[C@@H](C)C(=O)N[C@@H](CCCN=C(N)N)C(=O)N[C@@H](Cc1c[nH]cn1)C(=O)N[C@@H](CC(C)C)C(=O)N[C@@H](C)C(=O)N[C@@H](CCC(N)=O)C(=O)N[C@H](C(=O)NCC(=O)N[C@@H](CC(=O)O)C(=O)N[C@@H](CO)C(=O)N[C@@H](CCSC)C(=O)N[C@@H](CC(=O)O)C(=O)N[C@@H](CCCN=C(N)N)C(=O)O)C(C)C [unlabeled Bid 21mer peptide]
Ki [7]: 5.7 ± 1.1 nM

CC1=C(C2=C(C)C(=O)c3c(c(C(=O)O)c(O)c(O)c3C(C)C)C2=O)C(=O)c2c(C(=O)O)c(O)c(O)c(C(C)C)c2C1=O [gossypolonic acid]
Ki (recombinant human Bcl-2; [12]): 280 nM | IC50 [4, 13]: > 10 µM

CC(=O)Oc1cc2c(c(C(C)C)c1OC(C)=O)C(=O)C(C)=C(C1=C(C)C(=O)c3c(cc(OC(C)=O)c(OC(C)=O)c3C(C)C)C1=O)C2=O [Tetra acetyl apogossypolone, tetra-acetyl apogossypolone]
IC50 ([1]; Homo sapiens, MDA-MB-231 (subclone 2LMP), read-out: IC50 (μM) MDA-MB-231): 1.32 µM | IC50 ([2]; Homo sapiens, MDA-MB-435; read-out: IC50 (μM) MDA-MB-435): 6.29 µM | IC50 ([3]; Homo sapiens, T47D; read-out: IC50 (μM) T47D): 6.33 µM

Cc1cc2c(C(C)C)c(O)c(O)c(C=O)c2c(O)c1-c1c(C)cc2c(C(C)C)c(O)c(O)c(C=O)c2c1O (racemic) [(±)-Gossypol, gossypol]
IC50 [1, 14]: 11.1 µM | IC50 [2, 15]: 11.4 µM | IC50 [3, 16]: 16.3 µM

Cc1cc2c(C(C)C)c(O)c(O)cc2c(O)c1-c1c(C)cc2c(C(C)C)c(O)c(O)cc2c1O [apogossypol]
Ki (recombinant human Bcl-2): 200 nM | potency relative to (−)-gossypol in inhibition of cell growth [4]: as potent as (−)-gossypol | IC50 [1, 14]: 2.37 µM | fold more potent than gossypol [1]: about 5 fold | IC50 [2, 15]: 3.39 µM | fold more potent than gossypol ([2]; MDA-MB-435 cell line): about 3 fold | IC50 [3, 16]: 6.51 µM | fold more potent than gossypol ([3]; T47D cell line): about 2.5 fold | time in which the sample decomposed ([8]; stored at −20° C. and under nitrogen): ≤ 1 week

Cc1cc2c(C(C)C)c(O)c(O)c(C(=O)O)c2c(O)c1-c1c(C)cc2c(C(C)C)c(O)c(O)c(C(=O)O)c2c1O [gossypolic acid]
Ki (recombinant human Bcl-2; [12]): 120 nM | IC50 [4, 13]: > 10 µM

CC[C@H](C)[C@H](NC(=O)[C@H](CC(N)=O)NC(=O)[C@H](CCCNC(=N)N)NC(=O)[C@@H](NC(=O)[C@@H](NC(=O)[C@H](CC(=O)O)NC(=O)[C@H](CCC(=O)O)NC(=O)[C@H](CCC(N)=O)NC(=O)c1ccc2c(c1)C1(OC2=O)c2ccc(O)cc2Oc2cc(O)ccc21)[C@@H](C)CC)[C@@H](C)CC)C(=O)N[C@@H](C)C(=O)N[C@@H](CCCNC(=N)N)C(=O)N[C@@H](Cc1c[nH]cn1)C(=O)N[C@@H](CC(C)C)C(=O)N[C@@H](C)C(=O)N[C@@H](CCC(N)=O)C(=O)N[C@H](C(=O)NCC(=O)N[C@@H](CC(=O)O)C(=O)N[C@@H](CO)C(=O)N[C@@H](CCSC)C(=O)N[C@@H](CC(=O)O)C(=O)N[C@@H](CCCNC(=N)N)C(=O)O)C(C)C [Flu-Bid-21]
Kd ([7]; probe concentration 0.5 nM, read-out: apparent Kd for Mcl-1): 0.7 nM | Kd ([7]; probe concentration 1 nM, saturation experiment, read-out: Kd for Mcl-1): 0.83 nM | Kd ([7]; probe concentration 2.5 nM, read-out: apparent Kd for Mcl-1): 1.05 nM | Kd ([7]; probe concentration 5 nM, read-out: apparent Kd for Mcl-1): 1.32 nM

CC1=C(C2=C(C)C(=O)c3c(cc(O)c(O)c3C(C)C)C2=O)C(=O)c2cc(O)c(O)c(C(C)C)c2C1=O (racemic) [apogossypolone, 6,7,6′,7′-Tetrahydroxy-5,5′-diisopropyl-3,3′-dimethyl-[2,2′]binaphthalenyl-1,4,1′,4′-tetraone]
Ki (recombinant human Bcl-2): 76 nM | Ki (recombinant human Bcl-xL): 1270 nM | IC50 ([4]; Homo sapiens, PC-3, read-out: IC50, inhibition of cell growth): 2.2 µM | potency relative to (−)-gossypol in inhibition of cell growth [4]: 3-4 times | IC50 ([5]; Homo sapiens, LNCaP): 1300 nM | IC50 [1, 14]: 1.27 µM | fold more potent than gossypol [1]: about 9 fold | IC50 [2, 15]: 4.82 µM | fold more potent than gossypol ([2]; MDA-MB-435 cell line): about 2 fold | IC50 [3, 16]: 9.26 µM | fold more potent than gossypol ([3]; T47D cell line): about 2 fold | decomposition on storage ([8]; stored at room temperature for several weeks without the protection of nitrogen): no decomposition was detected | MTD relative to (−)-gossypol ([6]; both routes of administration): 8 times | MTD [6, 11]: ~80 mg/kg | MTD ([6]; oral gavage 5 days/week): > 240 mg/kg | complete tumor regression (PC-3 xenografts; apogossypolone 200 mg/kg p.o. plus X-ray radiation 2 Gy q.d. 5×3 weeks): seven out of ten | complete tumor regression (PC-3 xenografts; apogossypolone alone, 200 mg/kg p.o.): zero out of ten | effect on the tumors (PC-3 xenografts; apogossypolone alone, 200 mg/kg p.o. q.d. 5×4 weeks): limited effect | enhancement of radiation-mediated tumor inhibition (PC-3 xenografts; combination with X-ray radiation, P<0.0001, two-way ANOVA, n=10): significantly enhanced | Ki [7]: 51 ± 20 nM | fold better binding affinity compared with (−)-gossypol ([7]; Mcl-1): 3.5 fold
